The text below walks through data of patent publication US20240254087A1, “SELECTIVE, PARTIAL, AND ARRESTIN-BIASED 5-HT2A AGONISTS WITH UTILITY IN VARIOUS DISORDERS” (Saint Joseph's University, priority 2021, published 2024).

Usually Emax stands for the size of the effect at its maximum, as opposed to the concentration needed.

Each structure is given as a SMILES string. Entries after “also recorded” stand apart in the source; their conditions may differ. Bounds are passed on as bounds.

The first experiment deals with T1, 5-HT2A (Homo sapiens, UniProt P28223). The experiment can be described thus: cell-based. On the set-up: expressed in transfected cells; host or cells: HEK293T, transient.
T1 sequence (P28223 whole entry): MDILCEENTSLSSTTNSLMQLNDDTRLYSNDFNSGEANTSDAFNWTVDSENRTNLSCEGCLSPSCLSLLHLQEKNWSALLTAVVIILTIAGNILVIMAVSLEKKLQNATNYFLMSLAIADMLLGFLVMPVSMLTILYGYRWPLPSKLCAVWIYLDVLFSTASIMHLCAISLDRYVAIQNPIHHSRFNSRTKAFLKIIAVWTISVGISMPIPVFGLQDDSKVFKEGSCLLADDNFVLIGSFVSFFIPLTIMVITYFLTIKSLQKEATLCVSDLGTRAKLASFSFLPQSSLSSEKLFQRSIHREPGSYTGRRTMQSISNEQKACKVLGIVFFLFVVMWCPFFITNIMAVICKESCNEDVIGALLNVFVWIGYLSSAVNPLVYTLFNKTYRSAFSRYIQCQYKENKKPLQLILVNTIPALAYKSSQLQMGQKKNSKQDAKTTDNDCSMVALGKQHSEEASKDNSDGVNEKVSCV
Settings: not given
As for the experimental part:
(§1) After at least 18-24 hours, transfected cells were plated in poly-lysine coated 96-well white clear bottom cell culture plates in DMEM containing 1% dialyzed FBS at a density of 25-40,000 cells in 200 μL per well and incubated overnight. After approximately 20-24 hours, media was decanted and cells were washed with 60 μL of drug buffer (1×HBSS, 20 mM HEPES, pH 7.4), followed by 60 μL of drug buffer and pre-incubated in a humidified atmosphere at 37° C. before receiving drug stimulation. Drug stimulation was induced by adding 30 μL of a solution of drug (3X) diluted in McCorvy buffer (1×HBSS, 20 mM HEPES, pH 7.4, supplemented with 0.3% BSA fatty acid free, 0.03% ascorbic acid) and plates were incubated at the indicated time and temperature. Fifteen minutes before reading, 10 μL of the RLuc substrate, either coelenterazine h for β-Arrestin recruitment BRET^1 or coelenterazine 400a for Gq dissociation BRET^2 (Prolume/Nanolight, 5 μM final concentration) was addedper well. […] The BRET ratios of fluorescence/luminescence were calculated per well and were plotted as a function of drug concentration using Graphpad Prism 8 (Graphpad Software Inc., San Diego, CA).
In turn, `COc1cc(OC)c(OC)cc1CCNCc1ccccc1-c1ccc(O)cc1` [(64)] registered an EC50 of 617 nM.

Still in this experiment, the particulars now being: BRET, mean ± SEM.
With `COc1cc(CCNCc2ccccc2OC)c(OC)cc1C` [25D-NBOMe (26)], the “5-HT2A Gq Emax (% 5-HT)” value is recorded as 93.0 ± 1.3 % 5-HT.

With `COc1cc(OC)c(OC)cc1CCNCc1ccccc1OCc1ccccc1` [(61)], the “5-HT2A Gq dissociation pEC50” value is given as “No activity”.

Take `COc1cc(OC)c(OC)cc1CCNCc1cccc(-c2ccccc2)c1O` [(63)]: the “5-HT2A Gq dissociation pEC50” value is reported as “No activity”.

The same experiment, now with this note: read-out: 5-HT2A Gq Emax (% 5-HT), BRET, mean ± SEM.
Regarding `COc1cc(CCNCc2ccccc2OC)c(OC)cc1C` [25D-NBOMe (26)], the Emax was not below 76%.

Take `COc1cc(OC)c(OC)cc1CCNCc1ccccc1OCc1ccccc1` [(61)]: the maximal effect (Emax) is less than 10%.

For `COc1cc(OC)c(OC)cc1CCNCc1cccc(-c2ccccc2)c1O` [(63)], the maximal response (Emax) is less than 10%.

For `COc1cc(OC)c(OC)cc1CCNCc1ccccc1-c1ccc(O)cc1` [(64)], the Emax came to 43.6 ± 2.5%.

In a further experiment the target is 5-HT2B (Homo sapiens, UniProt P41595). Nature of the experiment: BRET Gq dissociation, 5-HT2B. The format is cell-based. Details: expressed in transfected cells; host or cells: HEK293T, transient.
Sequence of 5-HT2B (P41595 whole entry): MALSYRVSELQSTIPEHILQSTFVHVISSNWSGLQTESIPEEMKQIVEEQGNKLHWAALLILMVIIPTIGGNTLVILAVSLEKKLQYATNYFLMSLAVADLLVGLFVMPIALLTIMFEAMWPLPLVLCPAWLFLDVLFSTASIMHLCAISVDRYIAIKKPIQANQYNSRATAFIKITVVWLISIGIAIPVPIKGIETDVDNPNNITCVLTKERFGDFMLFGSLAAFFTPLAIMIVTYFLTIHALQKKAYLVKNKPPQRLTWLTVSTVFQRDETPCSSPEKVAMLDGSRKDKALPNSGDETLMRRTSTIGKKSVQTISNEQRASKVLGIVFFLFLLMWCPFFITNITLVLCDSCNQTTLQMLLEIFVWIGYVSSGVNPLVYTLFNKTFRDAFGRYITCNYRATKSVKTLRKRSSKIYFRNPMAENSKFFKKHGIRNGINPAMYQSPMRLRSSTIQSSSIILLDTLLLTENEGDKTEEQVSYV
Settings: not given
As for the experimental part:
After at least 18-24 hours, transfected cells were plated in poly-lysine coated 96-well white clear bottom cell culture plates in DMEM containing 1% dialyzed FBS at a density of 25-40,000 cells in 200 μL per well and incubated overnight. After approximately 20-24 hours, media was decanted and cells were washed with 60 μL of drug buffer (1×HBSS, 20 mM HEPES, pH 7.4), followed by 60 μL of drug buffer and pre-incubated in a humidified atmosphere at 37° C. before receiving drug stimulation. Drug stimulation was induced by adding 30 μL of a solution of drug (3X) diluted in McCorvy buffer (1×HBSS, 20 mM HEPES, pH 7.4, supplemented with 0.3% BSA fatty acid free, 0.03% ascorbic acid) and plates were incubated at the indicated time and temperature. Fifteen minutes before reading, 10 μL of the RLuc substrate, either coelenterazine h for β-Arrestin recruitment BRET^1 or coelenterazine 400a for Gq dissociation BRET^2 (Prolume/Nanolight, 5 μM final concentration) was addedper well. Plates were read for luminescence at 485 nm and fluorescent eYFP emission at 530 nm for BRET^1 and at 400 nm and fluorescent GFP2 emission at 510 nm for BRET2 at 1 second per well using a Mithras LB940 (Berthold). The BRET ratios of fluorescence/luminescence were calculated per well and were plotted as a function of drug concentration using Graphpad Prism 8 (Graphpad Software Inc., San Diego, CA).
In general terms: In BRET a luciferase serves as donor, and the signal depends on an acceptor being close.
Turning to `COc1cc(OC)c(OC)cc1CCNCc1ccccc1OCc1ccccc1` [(61)], the “5-HT2B Gq Dissociation (BRET) EMAX ± SEM (%5-HT)” value is “No activity” and the “5-HT2B Gq Dissociation (BRET) pEC50 ± SEM” value was “No activity”.

`COc1cc(OC)c(OC)cc1CCNCc1cccc(-c2ccccc2)c1O` [(63)]: the “5-HT2B Gq Dissociation (BRET) EMAX ± SEM (%5-HT)” value was “No activity” and the “5-HT2B Gq Dissociation (BRET) pEC50 ± SEM” value is reported as “No activity”.

Still in this experiment, the particulars now being: read-out: 5-HT2B Gq Dissociation (BRET) EMAX ± SEM (%5-HT).
`COc1cc(OC)c(OC)cc1CCNCc1ccccc1-c1ccc(O)cc1` [(64)]: the Emax came to 29.2 ± 10.6%.

The same experiment, now with this note: read-out: 5-HT2B Gq Dissociation (BRET) pEC50 ± SEM (converted).
As for `COc1cc(OC)c(OC)cc1CCNCc1ccccc1-c1ccc(O)cc1` [(64)], the EC50 is 3020 nM.

The next experiment concerns the target T2, 5-HT2C (Homo sapiens, UniProt P28335).
T2 sequence (P28335 33-458): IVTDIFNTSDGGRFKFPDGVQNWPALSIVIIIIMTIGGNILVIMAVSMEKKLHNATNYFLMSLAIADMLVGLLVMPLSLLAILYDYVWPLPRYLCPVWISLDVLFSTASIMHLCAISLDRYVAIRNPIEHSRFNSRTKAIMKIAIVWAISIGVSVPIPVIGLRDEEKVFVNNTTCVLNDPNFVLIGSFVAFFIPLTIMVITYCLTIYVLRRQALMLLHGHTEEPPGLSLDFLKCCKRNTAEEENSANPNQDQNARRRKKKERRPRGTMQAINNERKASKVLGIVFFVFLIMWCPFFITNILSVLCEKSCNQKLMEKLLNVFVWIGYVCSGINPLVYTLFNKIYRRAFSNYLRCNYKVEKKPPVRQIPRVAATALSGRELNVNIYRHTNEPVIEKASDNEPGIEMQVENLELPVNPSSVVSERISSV
The experiment can be described thus: BRET Gq dissociation, 5-HT2C. The format is cell-based. Details: expressed in transfected cells; host or cells: HEK293T, transient.
Settings: not given
The method, then: as §1
Take `COc1cc(OC)c(OC)cc1CCNCc1ccccc1OCc1ccccc1` [(61)]: the “5-HT2C Gq Dissociation (BRET) EMAX ± SEM (%5-HT)” value was “No Activity” and the “5-HT2C Gq Dissociation (BRET) pEC50 ± SEM” value is given as “No Activity”.

The same experiment, now with this note: read-out: 5-HT2C Gq Dissociation (BRET) EMAX ± SEM (%5-HT).
`COc1cc(OC)c(OC)cc1CCNCc1cccc(-c2ccccc2)c1O` [(63)]: the Emax came out at 79.2 ± 2.6%.

For `COc1cc(OC)c(OC)cc1CCNCc1ccccc1-c1ccc(O)cc1` [(64)], the Emax is 80.6 ± 9.8%.

Staying with this experiment, now noted: read-out: 5-HT2C Gq Dissociation (BRET) pEC50 ± SEM (converted).
For `COc1cc(OC)c(OC)cc1CCNCc1cccc(-c2ccccc2)c1O` [(63)], the EC50 is 51.3 nM.

For the compound `COc1cc(OC)c(OC)cc1CCNCc1ccccc1-c1ccc(O)cc1` [(64)], the EC50 was 1700 nM.

The subject of the next experiment is male C57BL/6J mice. The experiment can be described thus: Head-twitch response (HTR) in mice. The format is in vivo, mouse.
Settings: not given
The method, then: Male C57BL/6J mice (6-8 weeks old) from Jackson Labs (Bar Harbor, ME, USA) were used for the behavioral experiments. The mice were housed on a reversed light-dark cycle (lights on at 1900 h, off at 0700 h) in an AAAC-approved vivarium at the University of California San Diego. Mice were housed up to four per cage in a climate-controlled room and with food and water provided ad libitum except during behavioral testing. Testing was performed between 1000 and 1800 h (during the dark phase of the light-dark cycle). The studies were conducted in accordance with National Institutes Health (NIH) guidelines and were approved by the University of California San Diego Institutional Animal Care and Use Committee.
The mice were allowed to recover from the magnet implantation surgeries for at least 1 week prior to behavioral testing. HTR experiments were conducted in a well-lit room, and the mice were allowed to habituate to the room for at least 1 h prior to testing. Head twitches was assessed in a 12-cm diameter glass cylinder surrounded by a magnetometer coil. Coil voltage was low-pass filtered (2 kHz), amplified, and digitized (20-kHz sampling rate) using a Powerlab/8SP with LabChart v 7.3.2 (ADInstruments, Colorado Springs, CO, USA). […] HTR counts were analyzed using one-way ANOVAs. Dunnett's test was used for post hoc comparisons.
On to `COc1cc(CCNCc2ccccc2OC)c(OC)cc1C` [25D-NBOMe (26)], for which the “Max HTR response during a 30-min assessment (maximum counts ÷ baseline response)” value was 15.6-fold increase.

Regarding `COc1cc(OC)c(OC)cc1CCNCc1ccccc1OCc1ccccc1` [(61)], the “Induction of the HTR in mice (in words)” value was “lacked a HTR; also recorded: do not induce the HTR” and the “Max HTR response during a 30-min assessment (maximum counts ÷ baseline response)” value is 1.4-fold increase.

For the compound `COc1cc(OC)c(OC)cc1CCNCc1ccccc1-c1ccc(O)cc1` [(64)], the “Max HTR response during a 30-min assessment (maximum counts ÷ baseline response)” value is recorded as 2.1-fold increase.

Still in this experiment, the particulars now being: Mus musculus, read-out: HTR ED50 μmol/kg (95% CI), SC, except DOI and 25D-NBOMe IP.
In the case of `COc1cc(CCNCc2ccccc2OC)c(OC)cc1C` [25D-NBOMe (26)], the ED50 was 0.64 µmol/kg.

Staying with this experiment, now noted: Mus musculus, read-out: HTR ED50 mg/kg (95% CI), SC, except DOI and 25D-NBOMe IP.
Take `COc1cc(CCNCc2ccccc2OC)c(OC)cc1C` [25D-NBOMe (26)]: the ED50 is 0.23 mg/kg.

For `COc1cc(OC)c(OC)cc1CCNCc1ccccc1OCc1ccccc1` [(61)], the ED50 is more than 30 mg/kg.

For the compound `COc1cc(OC)c(OC)cc1CCNCc1ccccc1-c1ccc(O)cc1` [(64)], the ED50 is more than 30 mg/kg.

A further experiment deals with T1, 5-HT2A. The experiment can be described thus: cell-based. On the set-up: expressed in transfected cells; host or cells: HEK293T, transient.
Settings: not given
The source holds these as a separate data set. The method, then: as §1
Consider `COc1cc(OC)c(OC)cc1CCNCc1cccc(-c2ccccc2)c1O` [(63)], for which the EC50 is 102 nM.

The same experiment, now with this note: BRET, mean ± SEM; read-out: 5-HT2A β-arrestin recruitment pEC50 (converted).
For `COc1cc(OC)c(OC)cc1CCNCc1ccccc1OCc1ccccc1` [(61)], the EC50 was 3.31 nM.

Turning to `COc1cc(OC)c(OC)cc1CCNCc1ccccc1-c1ccc(O)cc1` [(64)], the EC50 is 11.7 nM.

Staying with this experiment, now noted: read-out: 5-HT2A β-arrestin Emax (% 5-HT), BRET, mean ± SEM.
In the case of `COc1cc(CCNCc2ccccc2OC)c(OC)cc1C` [25D-NBOMe (26)], the maximal response (Emax) was 126 ± 3.4%.

Consider `COc1cc(OC)c(OC)cc1CCNCc1ccccc1OCc1ccccc1` [(61)], for which the Emax was found to be 72.9 ± 4.2%.

For the compound `COc1cc(OC)c(OC)cc1CCNCc1cccc(-c2ccccc2)c1O` [(63)], the Emax came to 117 ± 14.6%.

On to `COc1cc(OC)c(OC)cc1CCNCc1ccccc1-c1ccc(O)cc1` [(64)], for which the maximal response (Emax) was determined as 80.5 ± 5.5%.
